According to US11759462B2, “Spirocyclic compounds as tryptophan hydroxylase inhibitors” (priority 2013, dated 2023):

Tests used:
[1] = tested on: jejunal mucosal 5-HT in mice (C57 BL6); assay: Intestinal 5-HT depletion assay (Example B, single 150 mg/kg oral dose); format: in vivo, mouse; conditions: one day after oral administration of a single 150 mg/kg dose, P-value class (ANOVA)
Method in brief: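 C57 BL6 mice received one 150 mg/kg oral gavage dose; jejunal mucosa was homogenized in acidic trichloroacetic acid buffer and 5-HT measured by HPLC. Levels normalized to BCA protein, expressed as mean percent reduction versus vehicle ± SEM; ANOVA significance.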

[2] = tested on: jejunal mucosal 5-HT in mice (C57 BL6); assay: Reduction of mucosal 5-HT concentrations (Example C, repeated oral dosing); format: in vivo, mouse; conditions: after three oral doses (first 10 or 50 mg/kg, then two doses of 50 mg/kg) (title), P-value class
Procedure: The efficacy of the TPH1 inhibitors of the invention was assessed for the ability to decrease intestinal serotonin concentration in mice. Mice (C57 BL6) were administered an oral dose of 10 or 50 mg/kg of the test article in the evening. […] Following an overnight fast, each animal was euthanized by exsanguination under isoflurane anesthesia. Jejunal intestinal mucosa was isolated and homogenized in […] of a buffer containing 0.3M trichloroacetic acid, 0.1M sodium acetate, 10 mM EDTA, 20 mM sodium bisulfate and 50 mM ascorbic acid. Following centrifugation the 5-HT levels in the supernatants were measured by HPLC. The remaining mucosal pellet was solubilized overnight at 37° C. in a 0.1% sodium dodecyl sulfate buffer in 0.1N NaOH followed by determination of protein concentrations using a BCA protein assay (Pierce, Rockford, Ill.). 5-HT levels were normalized to protein and data were expressed as mean percent reduction of mucosal 5-HT levels relative to vehicle control±SEM (percent 5-HT reduction). All animal studies were carried out with protocols approved by the Institutional Animal Care and Use Committee. P-values, indicating statistical significance of the data (ANOVA) are provided in the table: * refers to P<0.05,** refers to P<0.01, *** refers to P<0.005, and **** refers to P<0.0005.

| Structure (SMILES) | Efficacy (statistical significance of reduction of mucosal 5-HT concentrations relative to vehicle) [1] | Efficacy (statistical significance of reduction of mucosal 5-HT concentrations relative to vehicle) [2] |
| --- | --- | --- |
| CCCc1ccc([C@@H](Oc2cc(N3CCC4(CC3)CN[C@H](C(=O)OCC)C4)nc(N)n2)C(F)(F)F)c(-n2ccc(C)n2)c1 [Example 63bf, (S)-ethyl 8-(2-amino-6-((R)-2,2,2-trifluoro-1-(2-(3-methyl-1H-pyrazol-1-yl)-4-propylphenyl)ethoxy)pyrimidin-4-yl)-2,8-diazaspiro[4.5]decane-3-carboxylate] | **** (and refers to P<0.0005) | *** (*** refers to P<0.005) |
| CCCCc1ccc([C@@H](Oc2cc(N3CCC4(CC3)CN[C@H](C(=O)OCC)C4)nc(N)n2)C(F)(F)F)c(-n2ccc(C)n2)c1 [Example 63bg, (S)-ethyl 8-(2-amino-6-((R)-1-(4-butyl-2-(3-methyl-1H-pyrazol-1-yl)phenyl)-2,2,2-trifluoroethoxy)pyrimidin-4-yl)-2,8-diazaspiro[4.5]decane-3-carboxylate] | **** (and refers to P<0.0005) | *** (*** refers to P<0.005) |
| CCOC(=O)[C@@H]1CC2(CCN(c3cc(O[C@H](c4cc(-c5ccc(C)c(C)c5)ccc4-n4ccc(C)n4)C(F)(F)F)nc(N)n3)CC2)CN1 [Example 63bn, (S)-ethyl 8-(2-amino-6-((R)-1-(3′,4′-dimethyl-4-(3-methyl-1H-pyrazol-1-yl)-[1,1′-biphenyl]-3-yl)-2,2,2-trifluoroethoxy)pyrimidin-4-yl)-2,8-diazaspiro[4.5]decane-3-carboxylate] | **** (and refers to P<0.0005) | **** (**** refers to P<0.0005) |
| CCCc1ccc(-n2ccc(C)n2)c([C@@H](Oc2cc(N3CCC4(CC3)CN[C@H](C(=O)OCC)C4)nc(N)n2)C(F)(F)F)c1 [Example 63bo, (S)-ethyl 8-(2-amino-6-((R)-2,2,2-trifluoro-1-(2-(3-methyl-1H-pyrazol-1-yl)-5-propylphenyl)ethoxy)pyrimidin-4-yl)-2,8-diazaspiro[4.5]decane-3-carboxylate] | **** (and refers to P<0.0005) | *** (*** refers to P<0.005) |
| CCOC(=O)[C@@H]1CC2(CCN(c3cc(O[C@H](c4cc(CC)ccc4-n4ccc(C)n4)C(F)(F)F)nc(N)n3)CC2)CN1 [Example 63bp, (S)-ethyl 8-(2-amino-6-((R)-1-(5-ethyl-2-(3-methyl-1H-pyrazol-1-yl)phenyl)-2,2,2-trifluoroethoxy)pyrimidin-4-yl)-2,8-diazaspiro[4.5]decane-3-carboxylate] | **** (and refers to P<0.0005) | *** (*** refers to P<0.005) |
| CCOC(=O)[C@@H]1CC2(CCN(c3cc(O[C@H](c4ccc(Cl)cc4-c4cccc(S(N)(=O)=O)c4)C(F)(F)F)nc(N)n3)CC2)CN1 [Example 63ch, (S)-ethyl 8-(2-amino-6-((R)-1-(5-chloro-3′-sulfamoyl-[1,1′-biphenyl]-2-yl)-2,2,2-trifluoroethoxy)pyrimidin-4-yl)-2,8-diazaspiro[4.5]decane-3-carboxylate] | *** (*** refers to P<0.005) | *** (*** refers to P<0.005) |
| CCOC(=O)[C@@H]1CC2(CCN(c3cc(O[C@H](c4ccc(Cl)cc4-c4cccc(S(C)(=O)=O)c4)C(F)(F)F)nc(N)n3)CC2)CN1 [Example 63cj, (S)-ethyl 8-(2-amino-6-((R)-1-(5-chloro-3′-(methylsulfonyl)-[1,1′-biphenyl]-2-yl)-2,2,2-trifluoroethoxy)pyrimidin-4-yl)-2,8-diazaspiro[4.5]decane-3-carboxylate] | *** (*** refers to P<0.005) | ** (** refers to P<0.01) |
